Data taken from ChEMBL document CHEMBL5728238, “Inhibiting agents for Bruton's tyrosine kinase” (2021).

Target: Tyrosine-protein kinase BTK (Homo sapiens, UniProt Q06187)
Experiment: In Vitro Kinase Assay: The purpose of the BTK in vitro assay is to determine compound potency against BTK through the measurement of IC50. Compound inhibition is measured after monitoring the amount of phosphorylation of a fluorescein-labeled polyGAT peptide (Invitrogen PV3611) in the presence of active BTK enzyme (Upstate 14-552), ATP, and inhibitor. The BTK kinase reaction was done in a black 96 well plate (costar 3694). For a typical assay, a […] aliquot of a ATP/peptide master mix (final concentration; […], polyGAT 100 nM) in kinase buffer (10 mM Tris-HCl pH 7.5, 10 mM MgCl2, 200 μM Na3PO4, 5 mM DTT, 0.01% Triton X-100, and 0.2 mg/ml casein) is added to each well. Next, […] of a 4-fold, 40× compound titration in 100% DMSO solvent is added, followed by adding 15 μL of BTK enzyme mix in 1× kinase buffer (with a final concentration of 0.25 nM). The assay is incubated for 30 minutes before being stopped with 28 μL of a 50 mM EDTA solution. Aliquots (5 μL) of the kinase reaction are transferred to a low volume white 384 well plate (Corning 3674), and 5 μL of a 2× detection buffer (Invitrogen PV3574, with 4 nM Tb-PY20 antibody, Invitrogen PV3552) is added. The plate is covered and incubated for 45 minutes at room temperature. Time resolved fluorescence (TRF) on Molecular Devices M5 (332 nm excitation; 488 nm emission; 518 nm fluorescein emission) is measured. […]

Chain of Tyrosine-protein kinase BTK (Q06187 whole entry): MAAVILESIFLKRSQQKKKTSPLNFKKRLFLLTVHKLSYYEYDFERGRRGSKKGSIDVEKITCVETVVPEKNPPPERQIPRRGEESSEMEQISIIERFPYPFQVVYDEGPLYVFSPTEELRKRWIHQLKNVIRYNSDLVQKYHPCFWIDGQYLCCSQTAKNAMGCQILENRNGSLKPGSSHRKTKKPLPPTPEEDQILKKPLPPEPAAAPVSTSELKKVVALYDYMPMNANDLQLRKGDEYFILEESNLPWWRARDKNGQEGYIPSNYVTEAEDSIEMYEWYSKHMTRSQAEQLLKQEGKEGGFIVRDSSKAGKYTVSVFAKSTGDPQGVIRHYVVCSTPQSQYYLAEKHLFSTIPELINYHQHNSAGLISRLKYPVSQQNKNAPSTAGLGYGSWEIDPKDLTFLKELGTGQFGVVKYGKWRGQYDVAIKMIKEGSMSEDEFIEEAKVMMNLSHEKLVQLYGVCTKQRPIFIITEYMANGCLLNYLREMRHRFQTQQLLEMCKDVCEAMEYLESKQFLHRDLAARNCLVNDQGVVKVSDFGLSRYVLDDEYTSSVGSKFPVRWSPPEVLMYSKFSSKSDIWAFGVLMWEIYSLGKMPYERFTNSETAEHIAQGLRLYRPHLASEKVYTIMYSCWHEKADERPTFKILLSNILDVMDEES

Structure (SMILES)	IC50 [nM]
Cc1cc(-c2ncnc(Nc3cnn(C)c3)n2)ccc1CNC(=O)c1cc(C(C)(C)C)on1	< 1
Cc1cc(-c2ncnc(Nc3cnn(C)c3)n2)ccc1CNC(=O)c1noc(C2[C@@H](C)[C@H]2C)n1 (some centres not stated)	< 1
